Results on one compound are retold here after patent US9688653B2, “Ethoxyphenyl thienyl compounds and methods for the treatment of bacterial infections” (Duke University, priority 2013, dated 2017).

Like-named read-outs stand apart in the source and are kept apart here.

Series [1] is described as follows: in vitro. The class given is cell-based. Conditions: human.
A short description of series [2]: in vitro. The conditions noted are these: human (5637 cells, CC50), Escherichia coli (UTI89, IC50), Fold Selective (CC50/IC50). Summed up: (§1)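 UTI89 cultures in LB with 0.5% DMSO were preincubated 2 hr at 37 °C with compounds (100 μM in screen), then with K1F phage a further 2 hr. Viability was read as Alamar Blue fluorescence. Phage-lysis inhibition is relative to plate bacterial controls; IC50 by 4-parameter fit locked at 0 and 100.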

The test system of series [3] is E. coli K1 strain UTI89. The series can be described thus: microbe, parasite or virus in culture. The conditions noted are these: for Selectivity index (CC50/IC50): versus bladder 5637 cells. The essentials:
as §1

Series [4] is described as follows: Plasma protein binding, human. The format is in vitro ADME.
The nature of series [5]: Aqueous stability over 48 hours. The format is physicochemical. Conditions: aqueous PBS and 50:50 aqueous PBS:acetonitrile, room temperature. The protocol:
Aqueous stability for the probe was assessed using two solvent systems (100% aqueous PBS, and 50:50 aqueous PBS: acetonitrile). The probe stability was measured in aqueous PBS (no antioxidants or other protectants, DMSO concentration below 0.1%, room temperature) and the results are reported as circles in the graph in FIG. 4. The probe stability was also measured in 50:50 aqueous PBS and acetonitrile and the results are reported as squares in the graph in FIG. 4. Stability data in each case is depicted as the loss of compound with time over 48 hours with a minimum of six time points and providing the percent compound remaining after 48 hours.

Series [6] concerns E. coli strains 536 (K15 serotype), CFT073 (K2 serotype), DS17 (K5 serotype), UTI89 (K1 serotype). The series can be described thus: Visualization of isolated capsule by Alcian blue staining. The format is cell-based, Escherichia coli. Conditions: strains 536, CFT073, DS17, UTI89; DU011 200 μM. The protocol: Visualization of capsule using Alcian blue staining. Overnight cultures of clinical E. coli strains were diluted 1:100 in the presence of 1% DMSO or 100 μM DU011. Cultures were grown for ˜6 hrs (OD600=1.2) at 37° C. Samples were centrifuged at 13,200 RPM for 5 min. The medium was removed and the cells were resuspended in 500 μL of Tris-Acetate (pH 5) and shaken for 1 hr at 37° C. Samples were re-centrifuged, and the supernatant was concentrated ˜100 fold in Amicon 3K microconcentrators.
A major consideration was whether the inhibitors of K1 encapsulation were also able to inhibit the production of other important E. coli Group 2 capsule types. […] Capsular material was isolated from strains 536 (K15 serotype), CFT073 (K2 serotype) and DS17 (K5 serotype), and UTI89 (K1 serotype) in the presence and absence of capsule inhibitors. Capsule was isolated from the same amount of bacteria after growth in vehicle or with inhibitor DU011 (200 μM). Isolated material was separated on a polyacrylamide gel and stained with the cationic dye alcian blue.

Series [7] in a line: PAMPA permeability. The class given is in vitro ADME. Conditions: read-out: PAMPA Pe. A general note: In PAMPA a lipid-coated filter parts donor from acceptor wells.
The subject of series [8] is Methicillin Resistant Staphylococcus aureus (MRSA) Strain USA300. The series can be described thus: Growth inhibition of MRSA in buffered TSB medium. The format is cell-based. The procedure:
FIG. 17. Inhibition of Methicillin Resistant Staphylococcus aureus (MRSA) Strain USA300 by ML317 (DU011). USA300 was grown shaking in TSB medium buffered at different pH as indicated in the figure with the addition of different concentrations of the chemical probe ML317. Growth was measured by absorbance readings as indicated.

One may read the CC50 as the concentration at which the toxic effect on the cells reaches its halfway point. The low end stands for greater toxicity to the cells, the high end for lower toxicity to the cells. The term inhibition denotes the relative decrease from the control value, in per cent. In general, IC50 refers to the midpoint of a concentration-inhibition curve. Compound `CCOc1ccc(-c2cc(NC(=O)c3c(F)cccc3F)c(C(=O)O)s2)cc1` [ML317, 3-(2,6-difluorobenzamido)-5-(4-ethoxyphenyl)thiophene-2-carboxylic acid] had a CC50 in series [1] of 26 µM. The selectivity ratio in series [2] (commercial sample, SID 103147605) was determined as 10.5; in series [2] (synthesized sample, SID 126497311), 27.3. Moreover, the inhibition at 100 µM in series [3] (Escherichia coli, read-out: % Inhibition at 100 μM) stood at 9.12%. The IC50 came to 4.5 ± 2.4 µM in series [3] (Escherichia coli, read-out: K1 Capsule IC50, commercial sample, SID 103147605); 1.89 ± 1.56 µM in series [3] (Escherichia coli, read-out: K1 Capsule IC50, synthesized sample, SID 126497311); 1.89 µM in series [3] (Escherichia coli, read-out: K1 phage IC50, first round of synthetic analogues, n = 3); 4.5 µM in series [3] (Escherichia coli, read-out: K1 phage IC50, purchased analogue series, n = 3). Further, the entries for the “Selectivity (Cyt./K1)” value in series [3] (first round of synthetic analogues) and in series [3] (purchased analogue series) were 27.3 and 10.49, respectively. Also, the entries for the “Selectivity index (CC50/IC50)” value in series [3] and in series [3] (listed as CID 23602075) were greater than 10 and 10.49, respectively. In addition, the figures for the “Plasma Protein Binding (% Bound)” value in series [4] (1 μM) and in series [4] (10 μM) were 99.68 % Bound and 99.85 % Bound, respectively. In addition, the Aqueous stability result in series [5] is “stable”. For the same compound, in series [6], the “Capsular material, Alcian blue stained gel” value was “capsule was reduced in each strain”. Moreover, the Papp was 14 ×10⁻⁶ cm/s in series [7] (Donor pH 5.0, Acceptor pH 7.4, RT); 209 ×10⁻⁶ cm/s in series [7] (Donor pH 6.2, Acceptor pH 7.4, RT); 52 ×10⁻⁶ cm/s in series [7] (pH 7.4, Donor pH 7.4, Acceptor pH 7.4, RT). Besides, the “Mode of action on MRSA (culture of bacteria from the experiments)” value in series [8] is “bactericidal”. For the same compound, the “Concentration sufficient to produce inhibition of MRSA” value in series [8] (pH 5 and 5.5, TSB medium) was 25 to 50 µM. In series [8] (pH 7, 100 and 200 μM), the “Growth of MRSA” value was “inhibited growth”.
